Measurements taken from patent EP0700399B1, “36-DERIVATIVES OF RIFAMYCINS AND THEIR USE AS ANTIMICROBIAL AGENTS” (GRUPPO LEPETIT S.P.A., priority 1993, dated 1994).
Read-outs that look alike come from different tables or passages of the source.

Key:
Staphylococcus aureus = assay: MIC by broth microdilution; type: cell-based; conditions: internal code L165; for MIC: Staphylococcus aureus, read-out: MIC of the compounds
Staph. aureus rifa-r^(1) = assay: MIC by broth microdilution; type: cell-based; conditions: for MIC of the compounds: internal code L721, rifampicin resistant strain, moderately resistant; for MIC: Staphylococcus aureus, read-out: MIC of the compounds
Staph. aureus rifa-r^(2) = assay: MIC by broth microdilution; type: cell-based; conditions: for MIC of the compounds: internal code L1282, rifampicin resistant strain, highly resistant; for MIC: Staphylococcus aureus, read-out: MIC of the compounds
Staph. aureus Smith = assay: MIC by broth microdilution; type: cell-based; conditions: internal code L819; for MIC: Staphylococcus aureus, read-out: MIC of the compounds
[1] = test system: Staph. epidermidis ATCC 12228; assay: MIC by broth microdilution; type: cell-based; conditions: internal code L147; for MIC: Staphylococcus epidermidis, ATCC12228, read-out: MIC of the compounds
[2] = test system: Staph. haemolyticus rifa-r^(2); assay: MIC by broth microdilution; type: cell-based; conditions: for MIC of the compounds: internal code L602, rifampicin resistant strain, highly resistant; for MIC: Staphylococcus haemolyticus, read-out: MIC of the compounds
Streptococcus pyogenes = assay: MIC by broth microdilution; type: cell-based; conditions: internal code L49; for MIC: Streptococcus pyogenes, read-out: MIC of the compounds
Strept. pneumoniae = assay: MIC by broth microdilution; type: cell-based; conditions: internal code L44; for MIC: Streptococcus pneumoniae, read-out: MIC of the compounds
[3] = test system: Enterococc. faecalis ATCC 7080; assay: MIC by broth microdilution; type: cell-based, Enterococcus faecalis; conditions: internal code L149; for MIC: Enterococcus faecalis, ATCC7080, read-out: MIC of the compounds
[4] = test system: Propionibact. acnes ATCC 6919; assay: MIC by broth microdilution; type: cell-based, Propionibacterium acnes; conditions: internal code L1014, anaerobic, 48 hours; for MIC: Cutibacterium acnes, ATCC6919, read-out: MIC of the compounds
[5] = test system: Bacteroides fragilis ATCC 25285; assay: MIC by broth microdilution; type: cell-based; conditions: internal code L1011, anaerobic, 48 hours; for MIC: Bacteroides fragilis, ATCC25285, read-out: MIC of the compounds
Neisseria gonorrhoeae = assay: MIC by broth microdilution; type: cell-based; conditions: internal code L997, 5% carbon dioxide, 48 hours; for MIC: Neisseria gonorrhoeae, read-out: MIC of the compounds
[6] = test system: Haemoph. influenzae ATCC 19418; assay: MIC by broth microdilution; type: cell-based, Haemophilus influenzae; conditions: internal code L970, 5% carbon dioxide, 48 hours; for MIC: Haemophilus influenzae, ATCC19418, read-out: MIC of the compounds
Escherichia coli = assay: MIC by broth microdilution; type: cell-based; conditions: internal code L47; for MIC: Escherichia coli, read-out: MIC of the compounds
[7] = test system: Proteus vulgaris ATCC 881; assay: MIC by broth microdilution; type: cell-based; conditions: internal code L79; for MIC: Proteus vulgaris, ATCC881, read-out: MIC of the compounds
[8] = test system: Pseudomonas aerug. ATCC10145; assay: MIC by broth microdilution; type: cell-based, Pseudomonas aeruginosa; conditions: internal code L4; for MIC: Pseudomonas, ATCC10145, read-out: MIC of the compounds
[9] = test system: Staphylococcus aureus Smith (Int. code L 819); assay: Experimental septicemia in mice; type: in vivo; conditions: Staphylococcus aureus, 168 h, treated once immediately after infection, survival on the 7th day
Method: Some compounds of the invention were also tested in experimental septicemia in mice infected with Staphylococcus aureus Smith (Int. code L 819). For this purpose, groups of five mice were infected intraperitoneally with about 1 x 10^6 CFU of S. aureus Smith suspended in 0.5 ml of Difco bacteriological mucin. Untreated animals died within 48 hours. The other animals were treated once immediately after infection. On the 7th day the value of ED50 (expressed in mg/kg) was calculated by the method of Spearman-[…]., Statistical method in biological assay, page 254, C. Griffin Ltd., London, 1952), on the basis of the percentage of animals surviving at each dose.

[10] = test system: Bacteroides fragilis ATCC 23745; assay: MIC by broth microdilution; type: cell-based; conditions: internal code L1010, anaerobic, 48 hours
[11] = test system: Esch. coli K12 hyperpermeable; assay: MIC by broth microdilution; type: cell-based, Escherichia coli; conditions: internal code G1640; hyperpermeable
[12] = test system: Esch. coli K12 rifa-r^(1); assay: MIC by broth microdilution; type: cell-based, Escherichia coli; conditions: internal code G1064; rifampicin resistant strain, moderately resistant
[13] = intravenous, read-out: ED50 IV route
[14] = sc, subcutaneous, read-out: ED50 SC route

| Molecule | MIC (Staphylococcus aureus) | MIC (Staph. aureus rifa-r^(1)) | MIC (Staph. aureus rifa-r^(2)) | MIC (Staph. aureus Smith) | MIC [1] | MIC [2] | MIC (Streptococcus pyogenes) | MIC (Strept. pneumoniae) | MIC [3] | MIC [4] | MIC [5] | MIC (Neisseria gonorrhoeae) | MIC [6] | MIC (Escherichia coli) | MIC [7] | MIC [8] | ED50 [9, 13] | ED50 [9, 14] | further results |
| --- | --- | --- | --- | --- | --- | --- | --- | --- | --- | --- | --- | --- | --- | --- | --- | --- | --- | --- | --- |
| 36-{[1-Ethyl-1,4-dihydro-1-methyl-4-oxo-1,8-naphthyridin-3-yl)carbonyloxy}-3-{[(4-methyl-1-piperazinyl)imino]methyl}rifamycin SV [Compound C27] | – | – | – | – | – | – | – | – | – | – | – | – | – | – | – | – | – | – | MIC of the compounds (Staphylococcus aureus): 0.03 µg/mL; MIC of the compounds (Staph. aureus rifa-r^(1)): 0.25 µg/mL; MIC of the compounds (Staph. aureus rifa-r^(2)): 16 µg/mL; MIC of the compounds (Staph. aureus Smith): 0.016 µg/mL; MIC of the compounds [1]: 0.016 µg/mL; MIC of the compounds [2]: 16 µg/mL; MIC of the compounds (Streptococcus pyogenes): 0.008 µg/mL; MIC of the compounds (Strept. pneumoniae): 0.008 µg/mL; MIC of the compounds [3]: 2 µg/mL; MIC of the compounds [4]: 0.03 µg/mL; MIC of the compounds [5]: 0.13 µg/mL; MIC of the compounds (Neisseria gonorrhoeae): 0.13 µg/mL; MIC of the compounds [6]: 0.25 µg/mL; MIC of the compounds (Escherichia coli): 32 µg/mL; MIC of the compounds [7]: 16 µg/mL; MIC of the compounds [8]: 32 µg/mL |
| CCn1cc(C(=O)OCC(=O)O[C@H]2[C@H](C)[C@H](O)[C@H](C)[C@@H](O)[C@@H](C)/C=C/C=C(/C)C(=O)Nc3c(C=NN4CCN(C)CC4)c(O)c4c5c(c(C)c(O)c4c3O)O[C@](C)(O/C=C/[C@H](OC)[C@H]2C)C5=O)c(=O)c2cnc(N3CCN(C)CC3)nc21 [Compound C28] | 0.06 µg/mL | 0.13 µg/mL | 2 µg/mL | 0.06 µg/mL | 0.06 µg/mL | 4 µg/mL | 0.016 µg/mL | 0.008 µg/mL | 8 µg/mL | 0.06 µg/mL | 1 µg/mL | 0.25 µg/mL | 2 µg/mL | 64 µg/mL | 64 µg/mL | 128 µg/mL | – | – | – |
| CCn1cc(C(=O)OCC(=O)O[C@H]2[C@H](C)[C@H](O)[C@H](C)[C@@H](O)[C@@H](C)/C=C/C=C(/C)C(=O)Nc3c(C=NN4CCN(C5CCCC5)CC4)c(O)c4c5c(c(C)c(O)c4c3O)O[C@](C)(O/C=C/[C@H](OC)[C@H]2C)C5=O)c(=O)c2cc(F)c(N3CCN(C)CC3)cc21 [Compound C26, 3-[[(4-Cyclopentyl-1-piperazinyl)-imino]methyl}-36-{[1-ethyl-6-fluoro-1,4-dihydro-7-(4-methyl-1-piperazinyl)-4-oxo-3-quinolinyl]carbonyloxy}-rifamycin SV] | 0.06 µg/mL | 0.13 µg/mL | 2 µg/mL | 0.13 µg/mL | 0.06 µg/mL | 0.5 µg/mL | 0.03 µg/mL | 0.03 µg/mL | 4 µg/mL | 0.13 µg/mL | 1 µg/mL | 0.13 µg/mL | 1 µg/mL | 2 µg/mL | 2 µg/mL | 32 µg/mL | 0.95 mg/kg | 1.6 mg/kg | – |
| CCn1cc(C(=O)OCC(=O)O[C@H]2[C@H](C)[C@H](O)[C@H](C)[C@@H](O)[C@@H](C)/C=C/C=C(/C)C(=O)Nc3c(C=NN4CCN(C)CC4)c(O)c4c5c(c(C)c(O)c4c3O)O[C@](C)(O/C=C/[C@H](OC)[C@H]2C)C5=O)c(=O)c2cc(F)c(N3CCN(C)CC3)cc21 [Compound C25, 36-{[1-Ethyl-6-fluoro-1,4-dihydro-7-(4-methyl-1-piperazinyl)-4-oxo-3-quinolinyl]carbonyloxy}-3-{[(4-methyl-1-piperazinyl)imino]methyl}rifamycin SV] | 0.06 µg/mL | 0.13 µg/mL | 1 µg/mL | 0.06 µg/mL | 0.13 µg/mL | 1 µg/mL | 0.03 µg/mL | 0.016 µg/mL | 2 µg/mL | – | 2 µg/mL | 0.5 µg/mL | 1 µg/mL | 64 µg/mL | 64 µg/mL | 128 µg/mL | 2.9 mg/kg | 4.7 mg/kg | – |
| CCn1cc(C(=O)OCC(=O)O[C@H]2[C@H](C)[C@H](O)[C@H](C)[C@@H](O)[C@@H](C)/C=C/C=C(/C)C(=O)NC3=CC(=O)c4c(c(O)c(C)c5c4C(=O)[C@@](C)(O/C=C/[C@H](OC)[C@H]2C)O5)C3=O)c(=O)c2cc(F)c(N3CCN(C)CC3)cc21 [Compound C23, 36-{2-[1-Ethyl-6-fluoro-1,4-dihydro-7-(4-methyl-1-piperazinyl)-4-oxo-3-quinolinyl]carbonyloxy} rifamycin S] | 0.06 µg/mL | 0.06 µg/mL | 1 µg/mL | – | 0.06 µg/mL | 4 µg/mL | 0.004 µg/mL | 0.004 µg/mL | 0.13 µg/mL | 2 µg/mL | – | 8 µg/mL | 2 µg/mL | 128 µg/mL | 128 µg/mL | > 128 µg/mL | – | 32.9 mg/kg | MIC ([10]; Bacteroides fragilis, ATCC23745, read-out: MIC of the compounds): 8 µg/mL |
| 36-Bromo-2'-(diethylamino)rifamycin P [Compound C9] | – | – | – | – | – | – | – | – | – | – | – | – | – | – | – | – | – | – | MIC of the compounds (Staphylococcus aureus): 0.06 µg/mL; MIC of the compounds (Staph. aureus rifa-r^(1)): 8 µg/mL; MIC of the compounds (Staph. aureus rifa-r^(2)): > 128 µg/mL; MIC of the compounds [1]: 0.06 µg/mL; MIC of the compounds [2]: ≥ 128 µg/mL; MIC of the compounds (Streptococcus pyogenes): 0.13 µg/mL; MIC of the compounds (Strept. pneumoniae): 0.13 µg/mL; MIC of the compounds [3]: 2 µg/mL; MIC of the compounds [4]: 0.06 µg/mL; MIC of the compounds [10]: 0.13 µg/mL; MIC of the compounds (Neisseria gonorrhoeae): 0.5 µg/mL; MIC of the compounds [6]: 0.25 µg/mL; MIC of the compounds (Escherichia coli): 16 µg/mL; MIC of the compounds [11]: 2 µg/mL; MIC of the compounds [12]: > 128 µg/mL; MIC of the compounds [7]: 32 µg/mL; MIC of the compounds [8]: 16 µg/mL |
| CCn1cc(C(=O)OCC(=O)O[C@H]2[C@H](C)[C@H](O)[C@H](C)[C@@H](O)[C@@H](C)/C=C/C=C(/C)C(=O)Nc3c(C=NN4CCN(C)CC4)c(O)c4c5c(c(C)c(O)c4c3O)O[C@](C)(O/C=C/[C@H](OC)[C@H]2C)C5=O)c(=O)cc1N1CCN(C)CC1 [Compound C30, 36-{[1-Ethyl-1,4-dihydro-6-(4-methyl-1-piperazinyl)-4-oxo-3-pyridinyl]carbonyloxy]-3-{[(4-methyl-1-piperazinyl)imino]methyl}rifamycin SV] | 0.016 µg/mL | 0.5 µg/mL | 1 µg/mL | 0.016 µg/mL | 0.016 µg/mL | 4 µg/mL | 0.016 µg/mL | 0.008 µg/mL | 0.25 µg/mL | 0.03 µg/mL | 0.06 µg/mL | 0.13 µg/mL | 1 µg/mL | 16 µg/mL | 16 µg/mL | 32 µg/mL | 0.72 mg/kg | 1.6 mg/kg | – |
| CO[C@H]1/C=C/O[C@@]2(C)Oc3c(C)c(O)c4c(O)c(c(C=NN5CCN(C)CC5)c(O)c4c3C2=O)NC(=O)/C(C)=C\C=C\[C@H](C)[C@H](O)[C@@H](C)[C@@H](O)[C@@H](C)[C@H](OC(=O)COC(=O)c2cn(C3CC3)c3cc(-c4cc(C)nc(C)c4)c(F)cc3c2=O)[C@@H]1C [Compound C29, 36-{[1-Cyclopropyl-6-fluoro-1,4-dihydre-7-(2,6-dimethyl-4-pyridinyl)-4-oxo-3-quinolinyl]-carbonyloxy}-3-{[(4-methyl-1-piperazinyl)imino]-methyl}rifamycin SV] | 0.03 µg/mL | 0.5 µg/mL | 2 µg/mL | 0.03 µg/mL | 0.03 µg/mL | 8 µg/mL | 0.016 µg/mL | 0.016 µg/mL | 2 µg/mL | 0.06 µg/mL | 0.13 µg/mL | 0.25 µg/mL | 0.25 µg/mL | 16 µg/mL | 128 µg/mL | > 128 µg/mL | – | – | – |
